Calls of active or inactive are those of the source. The rule behind the calls is not given here.
Experiments:
Nakaseomyces glabratus = assay: Antifungal activity against Candida glabrata at 10 mg/ml after 48 hrs by disc diffusion method; assay type: functional, organism-based
Salmonella paratyphi [1] = assay: Antibacterial activity against Salmonella paratyphi at 10 mg/ml after 24 hrs by disc diffusion method; assay type: functional, organism-based; conditions: Salmonella enterica subsp. enterica serovar Paratyphi A
Photorhabdus luminescens [2] = assay: Antibacterial activity against Photorhabdus luminescens at 10 mg/ml after 24 hrs by disc diffusion method; assay type: functional, organism-based
Candida albicans = assay: Antifungal activity against Candida albicans at 10 mg/ml after 48 hrs by disc diffusion method; assay type: functional, organism-based
Staphylococcus cohnii [3] = assay: Antibacterial activity against Staphylococcus cohnii at 10 mg/ml after 24 hrs by disc diffusion method; assay type: functional
Candida parapsilosis = assay: Antifungal activity against Candida parapsilosis at 10 mg/ml after 48 hrs by disc diffusion method; assay type: functional, organism-based
Salmonella paratyphi [4] = assay: Antibacterial activity against Salmonella paratyphi at 6.25 to 200 ug/ml after 24 hrs by microwell dilution method; assay type: functional, organism-based; conditions: Salmonella enterica subsp. enterica serovar Paratyphi A
Escherichia coli [5] = assay: Antibacterial activity against Escherichia coli at 10 mg/ml after 24 hrs by disc diffusion method; assay type: functional, organism-based
Pichia membranifaciens = assay: Antifungal activity against Pichia membranifaciens at 10 mg/ml after 48 hrs by disc diffusion method; assay type: functional, organism-based
Pseudomonas aeruginosa [6] = assay: Antibacterial activity against Pseudomonas aeruginosa at 10 mg/ml after 24 hrs by disc diffusion method; assay type: functional, organism-based
Staphylococcus aureus [7] = assay: Antibacterial activity against Staphylococcus aureus at 10 mg/ml after 24 hrs by disc diffusion method; assay type: functional
[8] = test system: Acinetobacter radioresistens; assay: Antibacterial activity against Acinetobacter radioresistens at 6.25 to 200 ug/ml after 24 hrs by microwell dilution method; assay type: functional, organism-based
Micrococcus lylae [9] = assay: Antibacterial activity against Micrococcus lylae at 6.25 to 200 ug/ml after 24 hrs by microwell dilution method; assay type: functional, organism-based
Kluyveromyces marxianus = assay: Antifungal activity against Kluyveromyces marxianus at 10 mg/ml after 48 hrs by disc diffusion method; assay type: functional, organism-based
Candida tropicalis = assay: Antifungal activity against Candida tropicalis at 10 mg/ml after 48 hrs by disc diffusion method; assay type: functional, organism-based
Klebsiella aerogenes [10] = assay: Antibacterial activity against Enterobacter aerogenes at 10 mg/ml after 24 hrs by disc diffusion method; assay type: functional, organism-based
Micrococcus luteus [11] = assay: Antibacterial activity against Micrococcus luteus at 6.25 to 200 ug/ml after 24 hrs by microwell dilution method; assay type: functional, organism-based
Aspergillus = assay: Antifungal activity against Aspergillus at 10 mg/ml after 72 hrs by disc diffusion method; assay type: functional, organism-based
Proteus vulgaris [12] = assay: Antibacterial activity against Proteus vulgaris at 6.25 to 200 ug/ml after 24 hrs by microwell dilution method; assay type: functional, organism-based
Micrococcus luteus [13] = assay: Antibacterial activity against Micrococcus luteus at 10 mg/ml after 24 hrs by disc diffusion method; assay type: functional, organism-based
Staphylococcus aureus [14] = assay: Antibacterial activity against Staphylococcus aureus at 6.25 to 200 ug/ml after 24 hrs by microwell dilution assay; assay type: functional, organism-based
Klebsiella aerogenes [15] = assay: Antibacterial activity against Enterobacter aerogenes at 6.25 to 200 ug/ml after 24 hrs by microwell dilution method; assay type: functional, organism-based
[16] = test system: Acinetobacter radioresistens; assay: Antibacterial activity against Acinetobacter radioresistens at 10 mg/ml after 24 hrs by disc diffusion method; assay type: functional, organism-based
Pseudomonas aeruginosa [17] = assay: Antibacterial activity against Pseudomonas aeruginosa at 6.25 to 200 ug/ml after 24 hrs by microwell dilution method; assay type: functional, organism-based
Staphylococcus cohnii [18] = assay: Antibacterial activity against Staphylococcus cohnii at 6.25 to 200 ug/ml after 24 hrs by microwell dilution assay; assay type: functional, organism-based
Proteus vulgaris [19] = assay: Antibacterial activity against Proteus vulgaris at 10 mg/ml after 24 hrs by disc diffusion method; assay type: functional, organism-based
Micrococcus lylae [20] = assay: Antibacterial activity against Micrococcus lylae at 10 mg/ml after 24 hrs by disc diffusion method; assay type: functional, organism-based
Hepacivirus hominis = assay: Inhibition of HCV N-terminal His-tagged NS5B RNA dependent RNA polymerase expressed in Escherichia coli DH5alpha using poly rA/U12 as primer at 200 uM after 60 mins by liquid scintillation counting
Photorhabdus luminescens [21] = assay: Antibacterial activity against Photorhabdus luminescens at 6.25 to 200 ug/ml after 24 hrs by microwell dilution method; assay type: functional, organism-based
Escherichia coli [22] = assay: Antibacterial activity against Escherichia coli at 6.25 to 200 ug/ml after 24 hrs by microwell dilution method; assay type: functional, organism-based
[23] = test system: Schwanniomyces occidentalis; assay: Antifungal activity against Schwanniomyces occidentalis at 10 mg/ml after 48 hrs by disc diffusion method; assay type: functional, organism-based

Row | SMILES | Activity (Nakaseomyces glabratus) | Activity (Salmonella paratyphi [1]) | Activity (Photorhabdus luminescens [2]) | Activity (Candida albicans) | Activity (Staphylococcus cohnii [3]) | Activity (Candida parapsilosis) | Activity (Salmonella paratyphi [4]) | Activity (Escherichia coli [5]) | Activity (Pichia membranifaciens) | Activity (Pseudomonas aeruginosa [6]) | Activity (Staphylococcus aureus [7]) | Activity [8] | Activity (Micrococcus lylae [9]) | Activity (Kluyveromyces marxianus) | Activity (Candida tropicalis) | Activity (Klebsiella aerogenes [10]) | Activity (Micrococcus luteus [11]) | Activity (Aspergillus) | Activity (Proteus vulgaris [12]) | Activity (Micrococcus luteus [13]) | further results
1 | CC(C(=O)NN1C(=O)CSC1c1ccc(F)cc1)c1ccc(-c2ccccc2)c(F)c1 (configuration not stated) | inactive | inactive | inactive | inactive | inactive | inactive | inactive | inactive | inactive | inactive | inactive | inactive | inactive | inactive | inactive | inactive | inactive | inactive | inactive | inactive | Activity (Staphylococcus aureus [14]): inactive; Activity (Klebsiella aerogenes [15]): inactive; Activity [16]: inactive; Activity (Pseudomonas aeruginosa [17]): inactive; Activity (Staphylococcus cohnii [18]): inactive; Activity (Proteus vulgaris [19]): inactive; Activity (Micrococcus lylae [20]): inactive; inhibition (Hepacivirus hominis): 8%; Activity (Photorhabdus luminescens [21]): inactive; Activity (Escherichia coli [22]): inactive; Activity [23]: inactive
2 | CC(C(=O)NN1C(=O)CSC1c1c(F)cccc1F)c1ccc(-c2ccccc2)c(F)c1 (configuration not stated) | inactive | inactive | inactive | inactive | inactive | inactive | inactive | inactive | inactive | inactive | inactive | inactive | inactive | inactive | inactive | inactive | inactive | inactive | inactive | inactive | Activity (Staphylococcus aureus [14]): inactive; Activity (Klebsiella aerogenes [15]): inactive; Activity [16]: inactive; Activity (Pseudomonas aeruginosa [17]): inactive; Activity (Staphylococcus cohnii [18]): inactive; Activity (Proteus vulgaris [19]): inactive; Activity (Micrococcus lylae [20]): inactive; inhibition (Hepacivirus hominis): 8%; Activity (Photorhabdus luminescens [21]): inactive; Activity (Escherichia coli [22]): inactive; Activity [23]: inactive
